Test results published in ChEMBL document CHEMBL3853350 (ACS Med Chem Lett, 2016).
pIC50: −log10 of the molar value.

Assays:
[1] = Oral bioavailability in CD-1 mouse plasma at 5 mg/kg measured 24 hrs post dose by LC/MS/MS analysis; type: ADME, organism-based
[2] = Half life in mouse hepatocytes at 1 uM by LC/MS analysis; type: ADME, cell-based, Hepatocyte
Salmonella typhimurium = assay: Genotoxicity in Salmonella typhimurium by Ames test; type: toxicity, organism-based; conditions: salmonella enterica subsp. enterica serovar typhimurium
[3] = Fraction unbound in mouse plasma at 1 uM after 5 hrs by rapid equilibrium dialysis based LC-MS/MS analysis; type: ADME, cell-free
[4] = Clearance in Beagle dog plasma at 0.5 mg/kg, iv measured 24 hrs post dose by LC/MS/MS analysis; type: ADME, organism-based, Canis lupus familiaris
[5] = AUC (0 to infinity) in cynomolgus monkey plasma at […] administered via oral gavage measured 24 hrs post dose by LC/MS/MS analysis; type: ADME, organism-based, Macaca fascicularis; design: dose 2.5 mg/kg, route oral, time infinity
[6] = Fraction unbound in human plasma at 1 uM after 5 hrs by rapid equilibrium dialysis based LC-MS/MS analysis; type: ADME, cell-free
Cytochrome P450 2B6 = target: T1, Cytochrome P450 2B6 (Homo sapiens, UniProt P20813); assay: Inhibition of CYP2B6 in human liver microsomes after 5 mins in presence of NADPH by LC-MS/MS analysis; type: ADME
T1 sequence (P20813 whole entry): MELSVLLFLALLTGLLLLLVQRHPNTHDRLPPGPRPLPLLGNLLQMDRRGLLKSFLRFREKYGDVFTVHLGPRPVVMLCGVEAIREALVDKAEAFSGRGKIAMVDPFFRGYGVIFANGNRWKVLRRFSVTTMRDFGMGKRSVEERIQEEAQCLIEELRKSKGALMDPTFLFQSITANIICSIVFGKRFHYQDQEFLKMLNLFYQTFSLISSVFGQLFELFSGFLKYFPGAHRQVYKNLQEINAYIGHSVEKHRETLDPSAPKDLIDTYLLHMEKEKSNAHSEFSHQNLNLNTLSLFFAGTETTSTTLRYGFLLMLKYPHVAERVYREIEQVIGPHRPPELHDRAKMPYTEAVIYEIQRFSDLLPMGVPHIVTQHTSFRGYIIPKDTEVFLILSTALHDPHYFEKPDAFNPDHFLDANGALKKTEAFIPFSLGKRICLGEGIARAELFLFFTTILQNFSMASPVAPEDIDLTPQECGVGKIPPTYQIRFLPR

[7] = Cmax in CD-1 mouse plasma at 5 mg/kg administered via oral gavage measured 24 hrs post dose by LC/MS/MS analysis; type: ADME, organism-based; design: dose 5 mg/kg, route oral
Cytochrome P450 2C8 = target: T2, Cytochrome P450 2C8 (Homo sapiens, UniProt P10632); assay: Inhibition of CYP2C8 in human liver microsomes after 5 mins in presence of NADPH by LC-MS/MS analysis; type: ADME
T2 sequence (P10632 whole entry): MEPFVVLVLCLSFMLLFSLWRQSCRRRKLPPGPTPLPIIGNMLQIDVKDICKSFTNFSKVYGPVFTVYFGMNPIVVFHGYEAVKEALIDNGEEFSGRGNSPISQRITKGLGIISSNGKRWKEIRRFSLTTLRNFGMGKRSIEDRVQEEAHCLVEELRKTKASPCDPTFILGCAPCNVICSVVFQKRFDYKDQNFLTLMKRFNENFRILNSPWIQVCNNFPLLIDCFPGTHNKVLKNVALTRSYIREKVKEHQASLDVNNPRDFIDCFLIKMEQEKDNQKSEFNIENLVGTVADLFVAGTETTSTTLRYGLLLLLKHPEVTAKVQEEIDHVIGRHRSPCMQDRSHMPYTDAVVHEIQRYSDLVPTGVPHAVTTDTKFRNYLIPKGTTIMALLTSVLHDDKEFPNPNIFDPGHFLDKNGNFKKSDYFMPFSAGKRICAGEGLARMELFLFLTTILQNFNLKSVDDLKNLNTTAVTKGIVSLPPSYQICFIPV

Cytochrome P450 3A4 = Cytochrome P450 3A4 (Homo sapiens, UniProt P08684); assay: Inhibition of CYP3A4 in human liver microsomes after 5 mins in presence of NADPH by LC-MS/MS analysis; type: ADME
Sequence of Cytochrome P450 3A4 (P08684 whole entry): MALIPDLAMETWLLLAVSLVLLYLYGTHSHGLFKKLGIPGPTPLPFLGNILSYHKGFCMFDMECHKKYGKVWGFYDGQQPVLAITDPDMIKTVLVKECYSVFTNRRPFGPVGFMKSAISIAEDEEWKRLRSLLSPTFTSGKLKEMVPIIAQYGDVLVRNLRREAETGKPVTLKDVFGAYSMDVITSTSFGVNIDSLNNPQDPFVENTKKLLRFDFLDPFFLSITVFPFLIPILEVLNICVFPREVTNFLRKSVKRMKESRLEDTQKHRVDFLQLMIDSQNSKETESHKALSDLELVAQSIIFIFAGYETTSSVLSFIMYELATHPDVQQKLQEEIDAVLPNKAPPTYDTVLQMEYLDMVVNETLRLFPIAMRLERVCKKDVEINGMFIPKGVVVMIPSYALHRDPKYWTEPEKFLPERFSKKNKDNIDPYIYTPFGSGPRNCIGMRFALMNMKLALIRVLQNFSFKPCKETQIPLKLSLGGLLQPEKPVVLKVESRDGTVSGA

[8] = AUC (0 to infinity) in Sprague-Dawley rat plasma at 5 mg/kg administered via oral gavage measured 24 hrs post dose by LC/MS/MS analysis; type: ADME, organism-based; design: dose 5 mg/kg, time infinity, route oral
[9] = Oral bioavailability in Sprague-Dawley rat plasma at 5 mg/kg measured 24 hrs post dose by LC/MS/MS analysis; type: ADME, organism-based
Cytochrome P450 1A2 = target: T3, Cytochrome P450 1A2 (Homo sapiens, UniProt P05177); assay: Inhibition of CYP1A2 in human liver microsomes after 5 mins in presence of NADPH by LC-MS/MS analysis; type: ADME
T3 sequence (P05177 whole entry): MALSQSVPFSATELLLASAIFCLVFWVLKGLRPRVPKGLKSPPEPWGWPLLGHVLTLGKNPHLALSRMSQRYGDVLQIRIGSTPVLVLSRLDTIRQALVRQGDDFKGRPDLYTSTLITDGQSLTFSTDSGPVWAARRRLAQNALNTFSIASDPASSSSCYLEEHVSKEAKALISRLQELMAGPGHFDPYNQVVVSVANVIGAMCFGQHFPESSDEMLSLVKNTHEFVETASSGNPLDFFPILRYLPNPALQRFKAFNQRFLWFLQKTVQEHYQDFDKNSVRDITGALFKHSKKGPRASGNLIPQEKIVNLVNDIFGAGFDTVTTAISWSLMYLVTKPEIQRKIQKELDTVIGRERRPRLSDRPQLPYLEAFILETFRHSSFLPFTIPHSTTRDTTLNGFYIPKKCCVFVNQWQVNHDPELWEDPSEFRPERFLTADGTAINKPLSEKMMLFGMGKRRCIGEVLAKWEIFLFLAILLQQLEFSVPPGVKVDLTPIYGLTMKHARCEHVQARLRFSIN

[10] = Cmax in cynomolgus monkey plasma at […] administered via oral gavage measured 24 hrs post dose by LC/MS/MS analysis; type: ADME, organism-based, Macaca fascicularis; design: dose 2.5 mg/kg, route oral
Cytochrome P450 2C19 = Cytochrome P450 2C19 (Homo sapiens, UniProt P33261); assay: Inhibition of CYP2C19 in human liver microsomes after 5 mins in presence of NADPH by LC-MS/MS analysis; type: ADME
Sequence of Cytochrome P450 2C19 (P33261 whole entry): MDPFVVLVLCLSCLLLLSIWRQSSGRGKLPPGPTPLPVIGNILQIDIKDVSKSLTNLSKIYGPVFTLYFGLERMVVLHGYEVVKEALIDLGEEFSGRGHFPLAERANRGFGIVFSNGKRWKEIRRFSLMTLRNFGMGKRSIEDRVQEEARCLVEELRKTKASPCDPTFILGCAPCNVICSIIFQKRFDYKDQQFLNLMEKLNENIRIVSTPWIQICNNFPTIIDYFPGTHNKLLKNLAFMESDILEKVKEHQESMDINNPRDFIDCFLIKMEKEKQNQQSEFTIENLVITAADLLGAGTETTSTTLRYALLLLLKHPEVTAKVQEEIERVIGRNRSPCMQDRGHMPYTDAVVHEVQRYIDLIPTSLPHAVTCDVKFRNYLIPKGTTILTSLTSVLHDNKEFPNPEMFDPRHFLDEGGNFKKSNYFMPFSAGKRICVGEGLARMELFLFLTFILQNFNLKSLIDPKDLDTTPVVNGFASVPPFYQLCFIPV

[11] = Volume of distribution at steady state in Sprague-Dawley rat plasma at 1 mg/kg, iv measured 24 hrs post dose by LC/MS/MS analysis; type: ADME, organism-based; conditions: read-out: Vdss
[12] = Cmax in Sprague-Dawley rat plasma at 5 mg/kg administered via oral gavage measured 24 hrs post dose by LC/MS/MS analysis; type: ADME, organism-based; design: dose 5 mg/kg, route oral
[13] = Fraction unbound in rat plasma at 1 uM after 5 hrs by rapid equilibrium dialysis based LC-MS/MS analysis; type: ADME, cell-free
[14] = Oral bioavailability in cynomolgus monkey plasma at […] measured 24 hrs post dose by LC/MS/MS analysis; type: ADME, organism-based, Macaca fascicularis
Cytochrome P450 2C9 = Cytochrome P450 2C9 (Homo sapiens, UniProt P11712); assay: Inhibition of CYP2C9 in human liver microsomes after 5 mins in presence of NADPH by LC-MS/MS analysis; type: ADME
Sequence of Cytochrome P450 2C9 (P11712 whole entry): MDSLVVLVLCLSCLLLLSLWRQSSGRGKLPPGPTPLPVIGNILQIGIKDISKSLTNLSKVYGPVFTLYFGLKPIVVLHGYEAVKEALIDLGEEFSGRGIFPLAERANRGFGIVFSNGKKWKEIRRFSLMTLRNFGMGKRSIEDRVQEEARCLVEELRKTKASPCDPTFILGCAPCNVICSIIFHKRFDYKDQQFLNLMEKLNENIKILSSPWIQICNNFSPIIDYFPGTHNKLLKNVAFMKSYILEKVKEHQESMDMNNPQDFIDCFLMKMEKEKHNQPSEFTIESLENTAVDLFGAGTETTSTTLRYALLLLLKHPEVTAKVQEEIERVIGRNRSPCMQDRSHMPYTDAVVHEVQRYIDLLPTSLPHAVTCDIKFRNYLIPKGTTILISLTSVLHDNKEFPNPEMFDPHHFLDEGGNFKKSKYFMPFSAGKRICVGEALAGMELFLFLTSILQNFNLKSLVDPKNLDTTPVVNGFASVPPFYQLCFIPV

[15] = Oral bioavailability in Beagle dog plasma at […] measured 24 hrs post dose by LC/MS/MS analysis; type: ADME, organism-based, Canis lupus familiaris
[16] = Half life in human hepatocytes at 1 uM by LC/MS analysis; type: ADME, cell-based, Hepatocyte
Cytochrome P450 2D6 = Cytochrome P450 2D6 (Homo sapiens, UniProt P10635); assay: Inhibition of CYP2D6 in human liver microsomes after 5 mins in presence of NADPH by LC-MS/MS analysis; type: ADME
Sequence of Cytochrome P450 2D6 (P10635 whole entry): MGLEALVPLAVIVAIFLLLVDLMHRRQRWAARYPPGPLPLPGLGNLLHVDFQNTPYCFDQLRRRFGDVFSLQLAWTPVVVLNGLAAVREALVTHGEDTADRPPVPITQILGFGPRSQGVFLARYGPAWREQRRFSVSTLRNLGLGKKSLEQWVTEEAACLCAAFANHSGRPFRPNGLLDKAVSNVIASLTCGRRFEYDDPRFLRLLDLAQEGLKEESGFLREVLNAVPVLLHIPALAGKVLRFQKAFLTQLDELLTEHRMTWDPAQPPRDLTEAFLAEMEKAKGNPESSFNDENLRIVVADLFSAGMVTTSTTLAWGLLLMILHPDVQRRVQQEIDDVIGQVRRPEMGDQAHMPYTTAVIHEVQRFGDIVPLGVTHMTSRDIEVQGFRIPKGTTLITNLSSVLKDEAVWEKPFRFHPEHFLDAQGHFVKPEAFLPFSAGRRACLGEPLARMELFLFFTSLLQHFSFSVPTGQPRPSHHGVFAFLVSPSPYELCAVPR

C[C@H](NC(=O)c1c(N)nn2cccnc12)c1cc2cccc(C#Cc3cnn(C)c3)c2c(=O)n1-c1ccccc1 [EGANELISIB]
bioavailability [1]: 88%
half-life at 1 µM [2]: > 6 h
Activity (Salmonella typhimurium): Non-Toxic
fraction unbound at 5 h, 1 µM [3]: 0.022
clearance [4]: 2.8 mL/min/kg
AUC(0-inf) at 24 h [5]: 4030 ng·h/mL
fraction unbound at 5 h, 1 µM [6]: 0.011
pIC50 (Cytochrome P450 2B6): < 4.70
Cmax [7]: 3600 nM
pIC50 (Cytochrome P450 2C8): < 4.70
pIC50 (Cytochrome P450 3A4): < 4.70
AUC(0-inf) [8]: 8050 ng·h/mL
bioavailability [9]: 57%
pIC50 (Cytochrome P450 1A2): < 4.70
Cmax at 24 h [10]: 560 nM
pIC50 (Cytochrome P450 2C19): < 4.70
Vd [11]: 1.2 L/kg
Cmax [12]: 2000 nM
fraction unbound at 5 h, 1 µM [13]: 0.028
bioavailability at 24 h [14]: 31%
pIC50 (Cytochrome P450 2C9): < 4.70
bioavailability at 24 h [15]: 65%
half-life at 1 µM [16]: > 6 h
pIC50 (Cytochrome P450 2D6): < 4.70
